Measurements as given in patent US10077261B2, “Imidazolin-5-one derivative useful as FASN inhibitors for the treatment of cancer” (Janssen Pharmaceutica NV, priority 2012, dated 2018).
pIC50: −log10 of the molar value.

Legend:
[1] = biological target: T1, hFASN enzyme (full length) (Homo sapiens, UniProt P49327); experiment: Fatty Acid Synthase (FASN) inhibition scintillation proximity assay; type: biochemical; settings: for inhibition at 10 µM: read-out: Human FASN % inhibition @ 10 μM, 10 μM test compound; for IC50: read-out: Human FASN pIC50 (converted)
T1 construct: 10 μL hFASN enzyme (full length, 300 ng, purified in house); made in house
How it was run: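 Scintillation proximity format: in-house full-length enzyme, 300 ng per well, pH 7.5 phosphate/DTT buffer, ³H-acetyl-CoA and malonyl-CoA. Emission counted on LEADseeker at 610 nm at least 24 h after stopping.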

[2] = test system: LNCaP-Vancouver prostate cells; experiment: In vitro LNCaP Vancouver prostate cell proliferation assay in lipid reduced medium; type: cell-based; settings: read-out: pIC50 LNCaP_Vancouver prostate cell (converted)
[3] = test system: PC-3M-Luc-C6 prostate cells; experiment: In vitro PC-3M-Luc-C6 prostate cell proliferation assay in lipid reduced medium; type: cell-based; settings: 96 h, read-out: pIC50 PC-3M-Luc-C6 prostate cell (converted)
Experimental: PC-3M-Luc-C6 prostate cells were obtained from Xenogen Corporation. Cells were maintained in MEM supplemented with 10% Fetal Calf Serum (FCS, Hyclone), 2 mM glutamine, 1 mM sodium pyruvate, 1% BME vitamins (available from for example, Sigma Aldrich), 0.1 mM non Essential Amino Acid and 50 μg/ml Gentamicin. The cells were passaged twice a week.
The next day 10 μl test compound/DMSO diluted in medium was added (3E-5M, 1E-5M, 3E-6M, 1E-6M, 3E-7M, 1E-7M, 3E-8M, 1E-8M final concentration). Compounds were tested in duplicate. After 96 h incubation at 37° C., 5% CO2 25 μl ATP-glow mix was added. The plate was incubated for 30 min at 37° C. and luminescence was measured with the Envision.
Analysis: Determination of pIC50 Values
pIC50 values were calculated as follows.
where mLC and mHC are the means of the low control wells and high control wells on the plate, after manual exclusion of outliers. The relation between the % Controlmin values and concentration was fitted to a 4-parameter logistic curve using a non-linear least squares regression method to determine the pIC50 value. Outlying data points were excluded manually to get a correct fit. The pIC50 corresponds to −log 10(IC50), if the IC50 is expressed in molar units (http://www.ncbi.nlm.nih.gov/books/NBK91994). The IC50 parameter was always determined by non-linear regression, but one or more of the other parameters may have been held fixed on a relevant input value, such as 0 for the bottom values.

[4] = biological target: Fatty Acid Synthase Keto-reductase Domain (FASN KR) (Homo sapiens, UniProt P49327); experiment: Fatty Acid Synthase keto-reductase domain (FASN KR) inhibition, NADPH oxidation at 340 nm
Experimental: After 20 minutes incubation at room temperature the plate was measured again (T2).
The decrease in absorbance was calculated as (Absorbance before incubation T1)−(Absorbance following incubation T2).
A plot of Controlmin versus test compound concentration was fitted to a 4-parameter logistic curve using a non-linear least squares regression method.

A2780 ovarian cells [5] = experiment: A2780 ovarian cell proliferation assay in lipid reduced medium, with palmitate (MTT); type: cell-based; settings: Homo sapiens, A2780, 96 h; read-out: pIC50 A2780 Ovarian Cell, With Palmitate (converted)
How it was run: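 In this palmitate-supplemented format, compound dilutions (30 μM down to 0.01 μM) are added to cells in lipid-reduced serum with 25 μM palmitate, 0.2% fatty-acid-free BSA and 0.25% ethanol. After four days (96 h) MTT absorbance at 544 nm is recorded and fitted by minimum sum of squares.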

A2780 ovarian cells [6] = experiment: A2780 ovarian cell proliferation assay in lipid reduced medium, without palmitate (MTT); type: cell-based; settings: Homo sapiens, A2780, 96 h; read-out: pIC50 A2780 Ovarian Cell, Without Palmitate (converted)

Fatty Acid Synthase Keto-reductase Domain (FASN KR), sequence (P49327 whole entry, the tested form may be a part): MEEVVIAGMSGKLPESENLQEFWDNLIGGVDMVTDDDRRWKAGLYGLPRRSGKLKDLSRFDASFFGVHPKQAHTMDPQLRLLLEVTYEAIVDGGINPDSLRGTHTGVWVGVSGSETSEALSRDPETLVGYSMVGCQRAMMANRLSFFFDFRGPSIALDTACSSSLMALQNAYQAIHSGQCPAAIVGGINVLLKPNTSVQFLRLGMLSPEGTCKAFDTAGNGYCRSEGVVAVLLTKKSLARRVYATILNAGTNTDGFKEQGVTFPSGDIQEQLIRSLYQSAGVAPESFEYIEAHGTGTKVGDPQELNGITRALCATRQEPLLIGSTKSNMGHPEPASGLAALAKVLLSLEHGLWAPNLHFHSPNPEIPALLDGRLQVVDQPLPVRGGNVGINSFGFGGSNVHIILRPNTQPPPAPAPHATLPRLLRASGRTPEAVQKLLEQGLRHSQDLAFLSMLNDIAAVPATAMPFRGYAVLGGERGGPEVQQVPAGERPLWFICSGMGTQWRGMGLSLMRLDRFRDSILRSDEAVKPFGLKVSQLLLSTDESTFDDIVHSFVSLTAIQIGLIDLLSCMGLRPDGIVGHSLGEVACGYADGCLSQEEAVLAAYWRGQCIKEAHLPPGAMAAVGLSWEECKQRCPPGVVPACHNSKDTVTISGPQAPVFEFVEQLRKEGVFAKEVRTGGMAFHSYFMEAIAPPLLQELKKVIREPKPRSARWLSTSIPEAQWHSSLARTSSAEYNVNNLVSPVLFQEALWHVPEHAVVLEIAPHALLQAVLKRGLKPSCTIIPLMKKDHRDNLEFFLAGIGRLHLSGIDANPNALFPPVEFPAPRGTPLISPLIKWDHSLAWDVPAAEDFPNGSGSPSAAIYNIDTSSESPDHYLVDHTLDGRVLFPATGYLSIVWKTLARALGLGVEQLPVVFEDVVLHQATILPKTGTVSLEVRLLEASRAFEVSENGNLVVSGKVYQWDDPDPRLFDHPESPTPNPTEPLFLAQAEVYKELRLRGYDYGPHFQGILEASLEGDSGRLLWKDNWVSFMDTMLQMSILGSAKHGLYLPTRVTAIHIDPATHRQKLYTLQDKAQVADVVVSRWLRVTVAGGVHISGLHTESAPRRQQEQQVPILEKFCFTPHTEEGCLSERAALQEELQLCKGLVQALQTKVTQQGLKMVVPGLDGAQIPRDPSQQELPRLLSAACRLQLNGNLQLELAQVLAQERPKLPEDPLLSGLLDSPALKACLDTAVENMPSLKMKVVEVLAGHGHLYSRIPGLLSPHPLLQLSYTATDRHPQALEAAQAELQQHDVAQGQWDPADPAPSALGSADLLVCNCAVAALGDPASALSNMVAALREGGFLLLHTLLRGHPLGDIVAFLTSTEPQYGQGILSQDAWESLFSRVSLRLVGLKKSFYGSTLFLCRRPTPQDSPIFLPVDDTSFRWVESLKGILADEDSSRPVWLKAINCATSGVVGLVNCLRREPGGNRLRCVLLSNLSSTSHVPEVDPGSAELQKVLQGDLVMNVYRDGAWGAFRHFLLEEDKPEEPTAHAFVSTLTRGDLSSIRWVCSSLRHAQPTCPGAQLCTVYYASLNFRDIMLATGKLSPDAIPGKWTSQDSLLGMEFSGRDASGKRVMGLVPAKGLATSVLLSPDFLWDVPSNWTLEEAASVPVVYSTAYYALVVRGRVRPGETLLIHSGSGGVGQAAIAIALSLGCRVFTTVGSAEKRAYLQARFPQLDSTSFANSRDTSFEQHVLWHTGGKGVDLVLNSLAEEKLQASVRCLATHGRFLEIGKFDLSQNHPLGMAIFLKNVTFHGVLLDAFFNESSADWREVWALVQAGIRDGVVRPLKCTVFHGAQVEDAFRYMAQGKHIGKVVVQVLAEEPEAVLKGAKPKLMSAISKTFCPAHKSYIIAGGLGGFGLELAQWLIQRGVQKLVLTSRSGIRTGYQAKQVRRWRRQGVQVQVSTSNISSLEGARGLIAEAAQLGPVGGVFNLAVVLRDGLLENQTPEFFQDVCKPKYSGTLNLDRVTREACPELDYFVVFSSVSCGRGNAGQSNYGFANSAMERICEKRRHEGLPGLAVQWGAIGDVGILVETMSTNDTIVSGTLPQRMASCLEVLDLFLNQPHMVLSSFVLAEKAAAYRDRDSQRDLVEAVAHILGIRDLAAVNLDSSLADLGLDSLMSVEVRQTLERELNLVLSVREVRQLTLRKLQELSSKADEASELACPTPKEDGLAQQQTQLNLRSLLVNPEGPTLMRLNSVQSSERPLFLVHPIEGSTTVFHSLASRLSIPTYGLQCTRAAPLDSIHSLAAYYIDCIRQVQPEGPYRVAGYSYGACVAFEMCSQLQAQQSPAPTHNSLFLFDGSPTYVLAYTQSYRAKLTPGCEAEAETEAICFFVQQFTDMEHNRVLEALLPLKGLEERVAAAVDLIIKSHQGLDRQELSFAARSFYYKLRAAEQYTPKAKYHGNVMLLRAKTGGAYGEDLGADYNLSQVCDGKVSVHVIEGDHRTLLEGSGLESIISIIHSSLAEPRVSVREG
T1 sequence (P49327 whole entry): as the sequence (P49327 whole entry, the tested form may be a part) above

SMILES	inhibition at 10 µM [1]	IC50 [1]	IC50 [2]	IC50 [3]	pIC50 [4]	IC50 (A2780 ovarian cells [5])	IC50 (A2780 ovarian cells [6])
O=C(C1CC1)N1CC[C@@H](CN2C(=O)C3(CC3)N=C2c2ccc(-c3cnc4ccccc4c3)cc2F)C1 [compound 257, (R)-6-((1-(cyclopropanecarbonyl)pyrrolidin-3-yl)methyl)-5-(2-fluoro-4-(quinolin-3-yl)phenyl)-4,6-diazaspiro[2.4]hept-4-en-7-one]	99%	49 nM	263 nM	70.8 nM	6.70		
O=C(C1CC1)N1CC(CN2C(=O)C3(CC3)N=C2c2ccc(-c3ccc4cccnc4c3F)cc2)C1 [compound 315, 6-((1-(cyclopropanecarbonyl)azetidin-3-yl)methyl)-5-(4-(8-fluoroquinolin-7-yl)phenyl)-4,6-diazaspiro[2.4]hept-4-en-7-one]	98%	66.1 nM	631 nM	123 nM	6.60		
Cc1cc(-c2ccc3c(cnn3C)c2)ccc1C1=NC2(CC2)C(=O)N1CC1CN(C(=O)C2CCC2)C1 [compound 489]	97%		708 nM	~251 nM		> 10000 nM	148 nM
Cc1c(-c2ccc(C3=NC4(CC4)C(=O)N3CC3CN(C(=O)C4CC4)C3)cc2)ccc2c1cnn2C [compound 491, 6-{[1-(Cyclopropylcarbonyl)azetidin-3-yl]methyl}-5-[4-(1,4-dimethyl-1H-indazol-5-yl)phenyl]-4,6-diazaspiro[2.4]hept-4-en-7-one]	100%		1000 nM	~178 nM		> 10000 nM	72.4 nM
Cc1cc(-c2ccc3c(cnn3C)c2)ccc1C1=NC2(CC2)C(=O)N1CC1CN(C(=O)CC2CC2)C1 [compound 499, 6-{[1-(Cyclopropylacetyl)azetidin-3-yl]methyl}-5-[2-methyl-4-(1-methyl-1H-indazol-5-yl)phenyl]-4,6-diazaspiro[2.4]hept-4-en-7-one]	96%	245 nM	4270 nM	457 nM	6.32		
O=C(C1CC1)N1CC(CN2C(=O)C3(CC3)N=C2c2ccc(-c3ccc4cccnc4n3)cc2)C1 [compound 511, 6-{[1-(Cyclopropylcarbonyl)azetidin-3-yl]methyl}-5-[4-(1,8-naphthyridin-2-yl)phenyl]-4,6-diazaspiro[2.4]hept-4-en-7-one]	94%	355 nM	4680 nM	~891 nM	5.50		
Cn1ncc2c(-c3ccc(C4=NC5(CC5)C(=O)N4CC4CN(C(=O)C5CC5)C4)cc3)cccc21 [compound 515, 6-{[1-(Cyclopropylcarbonyl)azetidin-3-yl]methyl}-5-[4-(1-methyl-1H-indazol-4-yl)phenyl]-4,6-diazaspiro[2.4]hept-4-en-7-one]	96%	182 nM	2140 nM	562 nM	6.36		
Cc1cc(-c2cccc3c2cnn3C)ccc1C1=NC2(CC2)C(=O)N1CC1CN(C(=O)C2(C)CC2)C1 [compound 599, 6-({1-[(1-Methylcyclopropyl)carbonyl]azetidin-3-yl}methyl)-5-[2-methyl-4-(1-methyl-1H-indazol-4-yl)phenyl]-4,6-diazaspiro[2.4]hept-4-en-7-one]	102%		912 nM	105 nM		5500 nM	145 nM
Cc1cc(-c2ccc3c(c2)ncn3C)ccc1C1=NC2(CC2)C(=O)N1CC1CN(C(=O)C2(O)CC2)C1 [compound 628, 6-({1-[(1-Hydroxycyclopropyl)carbonyl]azetidin-3-yl}methyl)-5-[2-methyl-4-(1-methyl-1H-benzimidazol-5-yl)phenyl]-4,6-diazaspiro[2.4]hept-4-en-7-one]	100%		724 nM	162 nM		> 10000 nM	66.1 nM
O=C(C1CC1)N1CC[C@@H](CN2C(=O)C3(CC3)N=C2c2ccc(-c3cccc(SC4CC4)c3)cc2F)C1 [compound 641, 6-{[(3R)-1-(Cyclopropylcarbonyl)pyrrolidin-3-yl]methyl}-5-[3′-(cyclopropylsulfanyl)-3-fluorobiphenyl-4-yl]-4,6-diazaspiro[2.4]hept-4-en-7-one]	102%		4570 nM	~562 nM		> 10000 nM	~2240 nM
O=C(C1CC1)N1CC(CN2C(=O)C3(CC3)N=C2c2ccc(-c3nc4cc(Cl)ccc4s3)cc2F)C1 [compound 643, 5-[4-(5-Chloro-1,3-benzothiazol-2-yl)-2-fluorophenyl]-6-{[1-(cyclopropylcarbonyl)azetidin-3-yl]methyl}-4,6-diazaspiro[2.4]hept-4-en-7-one]	96%	380 nM	3020 nM	977 nM		~10000 nM	~676 nM
Cc1cc(-c2ccc3cc[nH]c3c2)ccc1C1=NC2(CCCC2)C(=O)N1C[C@@H]1CCN(C(=O)C2CC2)C1 [compound 873, (R)-2-(4-(1H-indol-6-yl)-2-methylphenyl)-3-((1-(cyclopropanecarbonyl)pyrrolidin-3-yl)methyl)-1,3-diazaspiro[4.4]non-1-en-4-one]	109%		263 nM	34.7 nM		> 10000 nM	63.1 nM

Results, then the molecule that gave them:

inhibition at 10 µM [1]	IC50 [1]	IC50 [2]	IC50 [3]	pIC50 [4]	IC50 (A2780 ovarian cells [5])	IC50 (A2780 ovarian cells [6])	SMILES
100%		2040 nM	~871 nM		> 10000 nM	~1860 nM	Cc1cc2cc(-c3ccc(C4=NC5(CC5)C(=O)N4C[C@@H]4CCN(C(=O)C5CC5)C4)cc3)ccc2o1 [compound 294, (R)-6-((1-(cyclopropanecarbonyl)pyrrolidin-3-yl)methyl)-5-(4-(2-methylbenzofuran-5-yl)phenyl)-4,6-diazaspiro[2.4]hept-4-en-7-one]
101%	75.9 nM	123 nM	~52.5 nM	7.12			O=C(C1CC1)N1CC[C@@H](CN2C(=O)C3(CC3)N=C2c2ccc(-c3ccc4cncnc4c3)cc2)C1 [compound 312, (R)-6-((1-(cyclopropanecarbonyl)pyrrolidin-3-yl)methyl)-5-(4-(quinazolin-7-yl)phenyl)-4,6-diazaspiro[2.4]hept-4-en-7-one]
99%	25.7 nM	141 nM	~32.4 nM	7.34			Cn1ccc2cc(-c3ccc(C4=NC5(CC5)C(=O)N4CC4CN(C(=O)C5CC5)C4)cc3)ccc21 [compound 344, 6-((1-(cyclopropanecarbonyl)azetidin-3-yl)methyl)-5-(4-(1-methyl-1H-indol-5-yl)phenyl)-4,6-diazaspiro[2.4]hept-4-en-7-one]
97%		288 nM	58.9 nM		> 10000 nM	74.1 nM	Nc1nccc2cc(-c3ccc(C4=NC5(CC5)C(=O)N4C[C@@H]4CCN(C(=O)C5CC5)C4)cc3)ccc12 [compound 469, 5-[4-(1-Aminoisoquinolin-6-yl)phenyl]-6-{[(3R)-1-(cyclopropylcarbonyl)pyrrolidin-3-yl]methyl}-4,6-diazaspiro[2.4]hept-4-en-7-one]
94%	355 nM	4170 nM	1170 nM	5.67			O=C(C1CC1)N1CC(CN2C(=O)C3(CC3)N=C2c2ccc(-c3ccc4cnc(F)cc4c3)cc2)C1 [compound 502, 6-{[1-(Cyclopropylcarbonyl)azetidin-3-yl]methyl}-5-[4-(3-fluoroisoquinolin-6-yl)phenyl]-4,6-diazaspiro[2.4]hept-4-en-7-one]
89%	417 nM	6030 nM	~1170 nM	5.44			Cn1cc2cc(-c3ccc(C4=NC5(CC5)C(=O)N4CC4CN(C(=O)C5CC5)C4)cc3)ccc2n1 [compound 507, 6-{[1-(Cyclopropylcarbonyl)azetidin-3-yl]methyl}-5-[4-(2-methyl-2H-indazol-5-yl)phenyl]-4,6-diazaspiro[2.4]hept-4-en-7-one]
